The record followed here is patent US20180237713A1, “Ionic Liquid, Lubricant, and Magnetic Recording Medium” (priority 2015, published 2018).

A value given as a limit tells only on which side of the number the result lay.

Series [1] is described as follows: Thermal stability measurement (TG/DTA weight reduction temperature). The conditions noted are these: for Weight reduction temperature 5% / Weight reduction temperature 10% / Weight reduction temperature 20%: TG/DTA, air 200 mL/min, 10° C./min, 30° C. to 600° C.; for Thermal stability improved compared with perfluoropolyether Z-DOL or Z-TETRAOL by: difference to Z-DOL or Z-TETRAOL; for 5%, 10%, 20% weight reduction temperatures (thermal stability) higher than perfluoropolyether Z-DOL (Comparative Example 11C) by: difference to Z-DOL; for 5%, 10%, 20% weight reduction temperatures (thermal stability) higher than Z-TETRAOL (Comparative Example 12C) by: difference to Z-TETRAOL.

The nature of series [2]: Solubility test of ionic liquid in fluorine-based solvent VERTREL XF. The conditions noted are these: for Solubility to fluorine-based solvent: VERTREL XF [CF3(CHF)2CF2CF3], 25° C., ultrasonic 5 minutes, left 1 day, visual; for Dissolved or not in fluorine-based solvent: VERTREL XF.
Procedure: A solubility test was performed on the ionic liquid synthesized each of Examples and each of Comparative Examples using VERTREL XF [CF3(CHF)2CF2CF3] available from Du Pont-Mitsui Fluorochemicals Company, Ltd. as a fluorine-based solvent.
The ionic liquid was added to the predetermined mass of VERTREL XF.
Specifically, 0.5 parts by mass or 0.1 parts by mass of each ionic liquid was added to 100 parts by mass of VERTREL XF (25° C.).
Note that, a case where the mixture was visually observed to be transparent, the ionic liquid was judged as being dissolved. A case where the mixture was not transparent or insoluble matter was observed, the ionic liquid was judged as not being dissolved (insoluble).
The ionic liquid was dissolved when 0.5 parts by mass of the ionic liquid was added.
The ionic liquid was not dissolved when 0.5 parts by mass of the ionic liquid was added, but the ionic liquid was dissolved when 0.1 parts by mass of the ionic liquid was added.
The ionic liquid was not dissolved both when 0.5 parts by mass of the ionic liquid was added and when 0.1 parts by mass of the ionic liquid was added.

For `CCCCCCCCCCCCCCCCCCn1cc[n+](CCC[n+]2ccn(CCCCCCCCCCCCCCCCCC)c2)c1.O=S(=O)([N-]S(=O)(=O)C(F)(F)C(F)(F)C(F)(F)C(F)(F)F)C(F)(F)C(F)(F)C(F)(F)C(F)(F)F.O=S(=O)([N-]S(=O)(=O)C(F)(F)C(F)(F)C(F)(F)C(F)(F)F)C(F)(F)C(F)(F)C(F)(F)C(F)(F)F`, in series [1], the “Weight reduction temperature 5%” value is 352.3 °C, the “Weight reduction temperature 10%” value turned out to be 381.9 °C and the “Weight reduction temperature 20%” value was determined as 401.4 °C.
Consider “heptadecafluorooctanesulfonic acid-7-octadecyl-1,5,7-triazabicyclo[4.4.0]-5-decenium”, for which, in series [1], the “Thermal stability compared to perfluoropolyether Z-DOL or Z-TETRAOL” value is on record as “high”, the “Weight reduction temperature 5%” value was 356.1 °C, the “Weight reduction temperature 10%” value was determined as 380.4 °C and the “Weight reduction temperature 20%” value came to 401.5 °C.
For the compound “heptadecafluorooctanesulfonic acid-6-octadecyl-1,8-diazabicyclo[5.4.0]-7-undecenium [Comp. Ex. 2A, reference compound]”, the “Solubility to fluorine-based solvent” value in series [2] is reported as “less than 0.1% by mass”.
On to `CCCCCCCCCCCCCCCCCC[n+]1ccn(CCC(F)(F)C(F)(F)C(F)(F)C(F)(F)C(F)(F)C(F)(F)C(F)(F)C(F)(F)F)c1.O=S(=O)([N-]S(=O)(=O)C(F)(F)C(F)(F)C(F)(F)C(F)(F)F)C(F)(F)C(F)(F)C(F)(F)C(F)(F)F` [Ex. 8A, bis(nonafluorobutanesulfonyl)imide-1-1′H,1′H,2′H,2′H-heptadecafluorodecyl-3-octadecylimidazolium], for which, in series [1], the “Weight reduction temperature 5%” value turned out to be 335.8 °C, the “Weight reduction temperature 10%” value came to 358.5 °C and the “Weight reduction temperature 20%” value came out at 377.7 °C.
For “bis(nonafluorobutanesulfonyl)imide-6-octadecyl-1,8-diazabicyclo[5.4.0]-7-undecene [Ex. 1A]”, the “Solubility to fluorine-based solvent” value in series [2] is on record as 0.5% by mass or greater. Further, the “Solubility to fluorine-based solvent” value in series [2] (listed as Example 1A) is listed as at least 0.5 % by mass. Moreover, in series [1], the “Weight reduction temperature 5%” value is 352.9 °C, the “Weight reduction temperature 10%” value is 378.2 °C and the “Weight reduction temperature 20%” value was 396.7 °C.
Consider `CCCCCCCCCCCCCCCCCCn1cc[n+](CCC[n+]2ccn(CCCCCCCCCCCCCCCCCC)c2)c1.O=S(=O)([N-]S(=O)(=O)C(F)(F)C(F)(F)C(F)(F)C(F)(F)F)C(F)(F)C(F)(F)C(F)(F)C(F)(F)F.O=S(=O)([N-]S(=O)(=O)C(F)(F)C(F)(F)C(F)(F)C(F)(F)F)C(F)(F)C(F)(F)C(F)(F)C(F)(F)F` [Ex. 11A], for which the “Solubility to fluorine-based solvent” value in series [2] is on record as 0.5% by mass or greater.
On to “heptadecafluorooctanesulfonic acid-7-octadecyl-1,5,7-triazabicyclo[4.4.0]-5-decenium [Comp. Ex. 5A, reference compound]”, for which, in series [2], the “Dissolved or not in fluorine-based solvent” value (“Dissolved or not” below) was “not dissolved” and the “Solubility to fluorine-based solvent” value is listed as “less than 0.1% by mass”.
On to “nonafluorobutanesulfonic acid-N-octadecylpyrrolidinium”, for which, in series [1], the “Weight reduction temperature 5%” value is 339.4 °C, the “Weight reduction temperature 10%” value came out at 359.0 °C, the “Weight reduction temperature 20%” value is 377.3 °C and the “Thermal stability improved compared with perfluoropolyether Z-DOL or Z-TETRAOL by” value is at least 95 °C.
Regarding `CCCCCCCCCCCCCCCCCCn1cc[n+](CCCCCCCCC[n+]2ccn(CCCCCCCCCCCCCCCCCC)c2)c1.O=S(=O)([N-]S(=O)(=O)C(F)(F)C(F)(F)C(F)(F)C(F)(F)F)C(F)(F)C(F)(F)C(F)(F)C(F)(F)F.O=S(=O)([N-]S(=O)(=O)C(F)(F)C(F)(F)C(F)(F)C(F)(F)F)C(F)(F)C(F)(F)C(F)(F)C(F)(F)F`, in series [1], the “5%, 10%, 20% weight reduction temperatures (thermal stability) higher than perfluoropolyether Z-DOL (Comparative Example 11C) by” value is at least 170 °C and the “5%, 10%, 20% weight reduction temperatures (thermal stability) higher than Z-TETRAOL (Comparative Example 12C) by” value was at least 110 °C.
In the case of `CCCCCCCCCCCCCCCCCCC1CCCCN2CCCN=C12.O=S(=O)(NS(=O)(=O)C(F)(F)C(F)(F)C(F)(F)C(F)(F)F)C(F)(F)C(F)(F)C(F)(F)C(F)(F)F`, in series [1], the “Weight reduction temperature 5%” value amounted to 352.9 °C; the “Weight reduction temperature 10%” value came out at 378.2 °C; the “Weight reduction temperature 20%” value is 396.7 °C; the “5%, 10%, 20% weight reduction temperatures (thermal stability) higher than perfluoropolyether Z-DOL (Comparative Example 11C) by” value is at least 100 °C. Further, the “5%, 10%, 20% weight reduction temperatures (thermal stability) higher than Z-TETRAOL (Comparative Example 12C) by” value in series [1] is at least 50 °C.
For `CCCCCCCCCCCCCCCCCCC1CCCCN2CCCN=C12.O=S1(=O)NS(=O)(=O)C(F)(F)C(F)(F)C1(F)F` (stereo not shown), the “Thermal stability compared to perfluoropolyether Z-DOL or Z-TETRAOL” value in series [1] is reported as “high”.
As for “nonafluorobutanesulfonic acid-N-octadecylpyrrolidinium [Ex. 6A]”, the “Dissolved or not” value in series [2] is “could be dissolved”.
With `CCCCCCCCCCCCCCCCCCN1CCCN2CCCN=C12.O=S1(=O)NS(=O)(=O)C(F)(F)C(F)(F)C1(F)F`, in series [1], the “Thermal stability compared to perfluoropolyether Z-DOL or Z-TETRAOL” value is “high”.
`CCCCCCCCCCCCCCCCCCn1cc[n+](CCCCC[n+]2ccn(CCCCCCCCCCCCCCCCCC)c2)c1.O=S(=O)([N-]S(=O)(=O)C(F)(F)C(F)(F)C(F)(F)C(F)(F)F)C(F)(F)C(F)(F)C(F)(F)C(F)(F)F.O=S(=O)([N-]S(=O)(=O)C(F)(F)C(F)(F)C(F)(F)C(F)(F)F)C(F)(F)C(F)(F)C(F)(F)C(F)(F)F` [Comp. Ex. 9A, 1,5-bis[bis(nonafluorobutanesulfonyl)imide-1-octadecylimidazolium]pentane, reference compound]: the “Solubility to fluorine-based solvent” value in series [2] is “less than 0.1% by mass”.
As for “tris(trifluoromethanesulfonyl)methide-6-octadecyl-1,8-diazabicyclo[5.4.0]-7-undecenium [Comp. Ex. 3A, reference compound]”, in series [2], the “Dissolved or not” value is given as “not dissolved” and the “Solubility to fluorine-based solvent” value is given as “less than 0.1% by mass”.
Take `CCCCCCCCCCCCCCCCCCn1cc[n+](CCCCC[n+]2ccn(CCCCCCCCCCCCCCCCCC)c2)c1.O=S(=O)([N-]S(=O)(=O)C(F)(F)C(F)(F)C(F)(F)C(F)(F)F)C(F)(F)C(F)(F)C(F)(F)C(F)(F)F.O=S(=O)([N-]S(=O)(=O)C(F)(F)C(F)(F)C(F)(F)C(F)(F)F)C(F)(F)C(F)(F)C(F)(F)C(F)(F)F`: in series [1], the “Weight reduction temperature 5%” value amounted to 360.1 °C; the “Weight reduction temperature 10%” value is 384.4 °C; the “Weight reduction temperature 20%” value amounted to 402.0 °C; the “5%, 10%, 20% weight reduction temperatures (thermal stability) higher than perfluoropolyether Z-DOL (Comparative Example 11C) by” value is at least 170 °C. In addition, the “5%, 10%, 20% weight reduction temperatures (thermal stability) higher than Z-TETRAOL (Comparative Example 12C) by” value in series [1] is at least 120 °C.
As for `CCCCCCCCCCCCCCCCCCN1CCCC1.O=S(=O)(NS(=O)(=O)C(F)(F)C(F)(F)C(F)(F)C(F)(F)F)C(F)(F)C(F)(F)C(F)(F)C(F)(F)F`, the “Thermal stability improved compared with perfluoropolyether Z-DOL or Z-TETRAOL by” value in series [1] is at least 70 °C.
On to `CCCCCCCCCCCCCCCCCC[N+]1(CCCC)CCCC1.O=S(=O)([N-]S(=O)(=O)C(F)(F)C(F)(F)C(F)(F)C(F)(F)F)C(F)(F)C(F)(F)C(F)(F)C(F)(F)F`, for which the “Thermal stability improved compared with perfluoropolyether Z-DOL or Z-TETRAOL by” value in series [1] is at least 90 °C.
For `CCCCCCCCCCCCCCCCCC[n+]1ccn(CCCC)c1.O=S(=O)([N-]S(=O)(=O)C(F)(F)C(F)(F)C(F)(F)C(F)(F)F)C(F)(F)C(F)(F)C(F)(F)C(F)(F)F`, the “Thermal stability compared to perfluoropolyether Z-DOL or Z-TETRAOL” value in series [1] is listed as “high”.
As to `CCCCCCCCCCCCCCCCCC[N+]1=C2CCCCCN2CCC1.O=S(=O)([O-])C(F)(F)F`, in series [1], the “Weight reduction temperature 5%” value was found to be 319.2 °C; the “Weight reduction temperature 10%” value stood at 346.6 °C; the “Weight reduction temperature 20%” value is 389.0 °C; the “5%, 10%, 20% weight reduction temperatures (thermal stability) higher than perfluoropolyether Z-DOL (Comparative Example 11C) by” value is at least 140 °C. The “5%, 10%, 20% weight reduction temperatures (thermal stability) higher than Z-TETRAOL (Comparative Example 12C) by” value in series [1] was at least 80 °C.
In the case of “tris(trifluoromethanesulfonyl)methide-6-octadecyl-1,8-diazabicyclo[5.4.0]-7-undecenium”, in series [1], the “Thermal stability compared to perfluoropolyether Z-DOL or Z-TETRAOL” value is given as “high”, the “Weight reduction temperature 5%” value was 354.9 °C, the “Weight reduction temperature 10%” value was found to be 385.0 °C and the “Weight reduction temperature 20%” value was 404.3 °C.
As for “heptadecafluorooctanesulfonic acid-6-octadecyl-1,8-diazabicyclo[5.4.0]-7-undecenium”, in series [1], the “Thermal stability compared to perfluoropolyether Z-DOL or Z-TETRAOL” value is “high”, the “Weight reduction temperature 5%” value came to 361.9 °C, the “Weight reduction temperature 10%” value came to 382.7 °C and the “Weight reduction temperature 20%” value was determined as 403.5 °C.
As for `C[n+]1ccn(CCC(F)(F)C(F)(F)C(F)(F)C(F)(F)C(F)(F)C(F)(F)C(F)(F)C(F)(F)F)c1.O=S(=O)([N-]S(=O)(=O)C(F)(F)C(F)(F)C(F)(F)C(F)(F)F)C(F)(F)C(F)(F)C(F)(F)C(F)(F)F`, in series [1], the “5%, 10%, 20% weight reduction temperatures (thermal stability) higher than perfluoropolyether Z-DOL (Comparative Example 11C) by” value was at least 150 °C and the “5%, 10%, 20% weight reduction temperatures (thermal stability) higher than Z-TETRAOL (Comparative Example 12C) by” value was at least 90 °C.
Consider `CCCCCCCCCCCCCCCCCC[N+]1=C2CCCCCN2CCC1.O=S(=O)([O-])C(F)(F)F` [Ex. 7A, trifluoromethanesulfonic acid-8-octadecyl-1,8-diazabicyclo[5.4.0]-7-undecenium], for which the entries for the “Solubility to fluorine-based solvent” value in series [2] and in series [2] (listed as Example 7A) were 0.5% by mass or greater and at least 0.5 % by mass, respectively.
For `CCCCCCCCCCCCCCCCCC[n+]1ccn(CCC(F)(F)C(F)(F)C(F)(F)C(F)(F)C(F)(F)C(F)(F)C(F)(F)C(F)(F)F)c1.O=S(=O)([N-]S(=O)(=O)C(F)(F)C(F)(F)C(F)(F)C(F)(F)F)C(F)(F)C(F)(F)C(F)(F)C(F)(F)F`, in series [1], the “5%, 10%, 20% weight reduction temperatures (thermal stability) higher than perfluoropolyether Z-DOL (Comparative Example 11C) by” value is at least 150 °C and the “5%, 10%, 20% weight reduction temperatures (thermal stability) higher than Z-TETRAOL (Comparative Example 12C) by” value was at least 90 °C.
Consider `CCCCCCCCCCCCCCCCCCN1CCCC1.O=S1(=O)NS(=O)(=O)C(F)(F)C(F)(F)C1(F)F`, for which, in series [1], the “Thermal stability compared to perfluoropolyether Z-DOL or Z-TETRAOL” value is on record as “high”.
